According to BigSolDB 2.1:

## Cn1nnc2c(C(N)=O)ncn2c1=O
In ethanol, 273.15 K
  solubility (mole fraction): 6.58e-05
In ethanol, 278.15 K
  solubility (mole fraction): 7.89e-05
In ethanol, 283.15 K
  solubility (mole fraction): 9.48e-05
In ethanol, 288.15 K
  solubility (mole fraction): 0.000115
In ethanol, 293.15 K
  solubility (mole fraction): 0.000136
In ethanol, 298.15 K
  solubility (mole fraction): 0.00016
In ethanol, 303.15 K
  solubility (mole fraction): 0.000188
In ethanol, 308.15 K
  solubility (mole fraction): 0.000225
In ethanol, 313.15 K
  solubility (mole fraction): 0.000269
In ethanol, 318.15 K
  solubility (mole fraction): 0.000313
In ethyl acetate, 273.15 K
  solubility (mole fraction): 8.03e-05
In ethyl acetate, 278.15 K
  solubility (mole fraction): 9.96e-05
In ethyl acetate, 283.15 K
  solubility (mole fraction): 0.00012
In ethyl acetate, 288.15 K
  solubility (mole fraction): 0.000144
In ethyl acetate, 293.15 K
  solubility (mole fraction): 0.000173
In ethyl acetate, 298.15 K
  solubility (mole fraction): 0.000206
In ethyl acetate, 303.15 K
  solubility (mole fraction): 0.000237
In ethyl acetate, 308.15 K
  solubility (mole fraction): 0.000277
In ethyl acetate, 313.15 K
  solubility (mole fraction): 0.000319
In ethyl acetate, 318.15 K
  solubility (mole fraction): 0.000371
In isopropanol, 273.15 K
  solubility (mole fraction): 2.2e-05
In isopropanol, 278.15 K
  solubility (mole fraction): 2.69e-05
In isopropanol, 283.15 K
  solubility (mole fraction): 3.4e-05
In isopropanol, 288.15 K
  solubility (mole fraction): 4.26e-05
In isopropanol, 293.15 K
  solubility (mole fraction): 5.17e-05
In isopropanol, 298.15 K
  solubility (mole fraction): 6.38e-05
In isopropanol, 303.15 K
  solubility (mole fraction): 7.8e-05
In isopropanol, 308.15 K
  solubility (mole fraction): 9.41e-05
In isopropanol, 313.15 K
  solubility (mole fraction): 0.000116
In isopropanol, 318.15 K
  solubility (mole fraction): 0.000143
In methanol, 273.15 K
  solubility (mole fraction): 0.000174
In methanol, 278.15 K
  solubility (mole fraction): 0.000217
In methanol, 283.15 K
  solubility (mole fraction): 0.00027
In methanol, 288.15 K
  solubility (mole fraction): 0.000327
In methanol, 293.15 K
  solubility (mole fraction): 0.00039
In methanol, 298.15 K
  solubility (mole fraction): 0.000459
In methanol, 303.15 K
  solubility (mole fraction): 0.000536
In methanol, 308.15 K
  solubility (mole fraction): 0.000621
In methanol, 313.15 K
  solubility (mole fraction): 0.00072
In methanol, 318.15 K
  solubility (mole fraction): 0.000838
In n-propanol, 273.15 K
  solubility (mole fraction): 4.28e-05
In n-propanol, 278.15 K
  solubility (mole fraction): 5.53e-05
In n-propanol, 283.15 K
  solubility (mole fraction): 6.99e-05
In n-propanol, 288.15 K
  solubility (mole fraction): 8.65e-05
In n-propanol, 293.15 K
  solubility (mole fraction): 0.000107
In n-propanol, 298.15 K
  solubility (mole fraction): 0.00013
In n-propanol, 303.15 K
  solubility (mole fraction): 0.000157
In n-propanol, 308.15 K
  solubility (mole fraction): 0.000188
In n-propanol, 313.15 K
  solubility (mole fraction): 0.000226
In n-propanol, 318.15 K
  solubility (mole fraction): 0.000271
